Experimental data published in publication PMC3849007 (Journal of Experimental & Clinical Cancer Research : CR, 2013).

Experiments:
[1] = test system: human tumor xenografted nude mice; set-up: method as in PMID 19010844; conditions: cited from earlier work
[2] = test system: anaphase bridges in BJ-EHLT fibroblasts; type: cell-based; conditions: 0.5 μM, 24 hrs
Source text: Anaphase bridges were scored by counting 400 nuclei per sample in triplicate. Histograms show the fold induction in treated versus untreated samples. Right panels show representative images of anaphase bridges in the treated samples at 63× magnification. Histograms show the mean of three independent experiments. Error bars indicate ± SD. (*P < 0.05).
As a result of chromosome ends fusion consequent to telomere damage, chromatin bridges are occasionally observed between daughter cells after mitosis (also called anaphase bridges).

M2 muscarinic receptor = target: T1, M2 muscarinic receptor (Homo sapiens, UniProt P08172); test: Cerep ExpresSProfile receptor screen, M2; conditions: data not shown, read-out: % inhibition of ligand binding, M2 muscarinic receptor
T1 construct: purchased Cerep (ExpresSProfile screen, contract service)
Experimental: To investigate the molecular bases of cardio toxicity, the agent was tested for its potential to interact with a panel of 54 pharmacological receptors, the majority being human recombinant receptors (Cerep ExpresSProfile screen) (http://www.cerep.fr).

anaesthetised guinea pig = test: Cardiovascular effects in anaesthetised guinea pig; type: in vivo; conditions: escalating iv doses 0.25, 0.5, 1 mg/kg, 60 min apart
Experimental: After anaesthesia with approximately 40 to 60 mg/kg (i.p.) sodium pentobarbitone, a jugular vein was cannulated for administration of the vehicle or test substance. Arterial blood pressure (systolic, diastolic and mean) was measured via a catheter inserted into the carotid artery, heart rate was derived electronically from the pressure waveform and a sample of arterial blood determined blood gases (PO2 and PCO2), O2 saturation, standard bicarbonate (HCO3), pH and base excess before the start of the experiment. Electrocardiogram (ECG) limb electrodes recorded the standard lead II configuration and QTcB interval (calculated as QTcB = QT/(√RR)). The animal was allowed to stabilise after completion of the surgical preparation for a period of at least 15 min. Then, after a further 10 min period of continuous recording of ECG and haemodynamic variables, the test substance or vehicle was administered intravenously as 3 iv infusions with each administration separated by 60 min.
Several limitations exist in the use of mouse and rat models for the study of cardiotoxic effects in pharmacology, which regard differences in myocardial function compared to the human heart. […]

[3] = set-up: method as in doi:10.1016/S0040-4020(01)90102-4; conditions: cited from earlier work

T1 sequence (P08172 whole entry): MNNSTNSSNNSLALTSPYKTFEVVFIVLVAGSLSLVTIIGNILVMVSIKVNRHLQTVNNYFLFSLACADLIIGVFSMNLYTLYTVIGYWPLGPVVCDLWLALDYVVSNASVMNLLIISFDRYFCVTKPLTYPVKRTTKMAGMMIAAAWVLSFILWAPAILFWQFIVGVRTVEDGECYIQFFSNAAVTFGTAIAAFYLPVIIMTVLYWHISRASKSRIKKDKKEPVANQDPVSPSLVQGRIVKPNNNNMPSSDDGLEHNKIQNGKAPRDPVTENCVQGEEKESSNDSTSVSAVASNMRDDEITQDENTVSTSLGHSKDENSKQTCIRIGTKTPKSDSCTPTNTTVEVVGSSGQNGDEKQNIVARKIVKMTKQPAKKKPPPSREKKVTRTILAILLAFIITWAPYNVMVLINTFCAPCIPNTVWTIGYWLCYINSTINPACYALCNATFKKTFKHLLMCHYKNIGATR

## Cc1cc2c3c([n+](C)c4ccc(F)cc4c3c1)-c1cc(F)ccc1N2C [Compound 1, 3,11-Difluoro-6,8,13-trimethyl-8H-quino[4,3,2-kl]acridinium metho-sulfate]
[1]; efficacious doses, during or after treatment
  toxic deaths or body weight loss: no toxic deaths or body weight loss
[1]; end of treatment
  histological analysis of organs and tissues: no evidence of lesions or morphological alterations
[1]; treated vs control mice, with heart rate and cardiac output decrease
  haemodynamic effect just after administration: marked but reversible hypotension
[2]
  anaphase bridges frequency, fold induction vs untreated: ten
M2 muscarinic receptor
  inhibition at 1 µM: > 95%
Anaesthetised guinea pig; all doses, listed as RHPS4
  effect on QTcB interval: marked and sustained increase in QTcB interval
Anaesthetised guinea pig; cumulative 1.75 mg/kg
  effect on heart rate: dose-related decrease in heart rate
[3]
  solubility: high solubility
